Reference: patent US20260055114A1, “IMIDAZO[1,2-B]PYRIDAZINE INHIBITORS OF CYCLIN-DEPENDENT KINASES” (H. LEE MOFFITT CANCER CENTER AND RESEARCH INSTITUTE, INC., priority 2022, published 2026)

What was measured:
CDK12 = CDK12 (Homo sapiens, UniProt Q9NYV4); assay: Inhibition of cyclin-dependent kinase 12 (% enzyme activity at 1 uM and IC50); assay type: biochemical; conditions: for remaining activity at 1 µM: 1 uM compound
CCNK = CCNK degradation (DC50, Dmax); assay type: cell-based; conditions: for Dmax (%): CCNK degradation
MDA-MB-231 cell line = assay: Antiproliferative activity, MDA-MB-231 cell line (GI50); assay type: cell-based; conditions: Homo sapiens

Sequence of CDK12 (Q9NYV4 whole entry): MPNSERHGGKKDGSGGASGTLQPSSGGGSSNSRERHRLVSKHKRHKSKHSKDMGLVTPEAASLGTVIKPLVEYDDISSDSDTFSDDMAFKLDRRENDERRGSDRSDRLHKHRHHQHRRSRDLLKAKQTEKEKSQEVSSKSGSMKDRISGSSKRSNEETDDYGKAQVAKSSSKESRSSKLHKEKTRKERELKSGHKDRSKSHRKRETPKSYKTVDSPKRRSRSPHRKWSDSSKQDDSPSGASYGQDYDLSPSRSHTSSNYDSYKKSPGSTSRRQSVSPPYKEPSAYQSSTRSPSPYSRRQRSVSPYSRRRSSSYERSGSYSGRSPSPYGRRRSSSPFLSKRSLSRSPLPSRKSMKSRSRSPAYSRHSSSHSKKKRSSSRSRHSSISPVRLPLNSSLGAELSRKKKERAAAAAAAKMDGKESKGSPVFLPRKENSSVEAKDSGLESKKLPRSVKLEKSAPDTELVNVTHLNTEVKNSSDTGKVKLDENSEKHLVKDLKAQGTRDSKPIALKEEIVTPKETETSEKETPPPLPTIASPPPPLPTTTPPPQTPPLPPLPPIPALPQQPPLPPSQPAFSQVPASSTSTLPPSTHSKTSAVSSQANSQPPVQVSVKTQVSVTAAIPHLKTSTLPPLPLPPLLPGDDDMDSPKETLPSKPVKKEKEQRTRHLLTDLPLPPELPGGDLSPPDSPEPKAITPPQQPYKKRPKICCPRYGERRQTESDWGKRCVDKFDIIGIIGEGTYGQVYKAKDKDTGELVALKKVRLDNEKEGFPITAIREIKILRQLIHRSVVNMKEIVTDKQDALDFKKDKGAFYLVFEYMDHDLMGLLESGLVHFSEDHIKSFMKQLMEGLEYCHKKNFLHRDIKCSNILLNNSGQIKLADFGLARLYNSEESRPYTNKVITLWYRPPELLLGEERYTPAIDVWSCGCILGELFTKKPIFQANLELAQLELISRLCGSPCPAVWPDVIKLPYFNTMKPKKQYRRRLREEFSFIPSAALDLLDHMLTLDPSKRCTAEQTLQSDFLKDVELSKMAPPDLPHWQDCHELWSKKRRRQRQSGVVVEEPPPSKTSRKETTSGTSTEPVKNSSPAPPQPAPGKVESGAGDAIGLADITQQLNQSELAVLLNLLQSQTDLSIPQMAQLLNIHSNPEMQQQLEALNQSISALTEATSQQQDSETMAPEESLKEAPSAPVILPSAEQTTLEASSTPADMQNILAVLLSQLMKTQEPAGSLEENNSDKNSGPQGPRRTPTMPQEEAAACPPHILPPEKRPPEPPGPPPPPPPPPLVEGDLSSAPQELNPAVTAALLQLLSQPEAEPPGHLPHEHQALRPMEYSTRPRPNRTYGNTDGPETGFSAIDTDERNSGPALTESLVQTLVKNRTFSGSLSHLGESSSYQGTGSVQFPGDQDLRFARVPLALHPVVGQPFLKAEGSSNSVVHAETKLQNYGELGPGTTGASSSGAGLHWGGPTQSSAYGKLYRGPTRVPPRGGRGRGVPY
Sequence of CDK12 (O75909 whole entry partner): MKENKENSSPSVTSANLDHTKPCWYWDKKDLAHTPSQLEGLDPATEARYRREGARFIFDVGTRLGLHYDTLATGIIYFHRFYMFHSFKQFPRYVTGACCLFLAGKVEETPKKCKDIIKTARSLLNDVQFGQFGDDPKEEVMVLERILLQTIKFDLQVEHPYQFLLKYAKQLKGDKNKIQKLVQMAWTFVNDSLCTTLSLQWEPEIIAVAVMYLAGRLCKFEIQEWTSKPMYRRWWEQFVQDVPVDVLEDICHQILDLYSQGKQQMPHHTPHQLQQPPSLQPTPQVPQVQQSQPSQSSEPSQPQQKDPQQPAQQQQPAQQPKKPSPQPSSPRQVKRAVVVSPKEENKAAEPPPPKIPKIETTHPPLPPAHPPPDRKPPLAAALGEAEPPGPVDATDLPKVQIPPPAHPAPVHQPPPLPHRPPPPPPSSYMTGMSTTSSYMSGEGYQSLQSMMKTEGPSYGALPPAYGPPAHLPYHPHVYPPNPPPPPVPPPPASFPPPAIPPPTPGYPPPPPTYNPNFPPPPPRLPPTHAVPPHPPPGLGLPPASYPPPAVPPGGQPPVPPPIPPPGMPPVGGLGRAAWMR

IC50 (CDK12) | DC50 (CCNK) | GI50 (MDA-MB-231 cell line) | remaining activity at 1 µM (CDK12) | Structure (SMILES) | Dmax (%) (CCNK)
18 nM | 30 nM | 7 nM | – | CC1(C)CN(c2cc(NCc3nc4cc(Cl)c(Cl)cc4[nH]3)c3ncc(-c4cnn(C(F)F)c4)n3n2)CCN1 [Cmpd 47, N-((5,6-dichloro-1H-benzo[d]imidazol-2-yl)methyl)-3-(1-(difluoromethyl)-1H-pyrazol-4-yl)-6-(3,3-dimethylpiperazin-1-yl) imidazo[1,2-b]pyridazin-8-amine] | 100%
– | 1800 nM | 3110 nM | 63% | Cc1cc(-c2cnc3c(NCc4nc5c(F)c(F)ccc5[nH]4)cc(N4CCN(C)CC4)nn23)cs1 [Cmpd 96, N-((4,5-difluoro-1H-benzo[d]imidazol-2-yl)methyl)-6-(4-methylpiperazin-1-yl)-3-(5-methylthiophen-3-yl) imidazo[1,2-b]pyridazin-8-amine] | 75%
3000 nM | 1000 nM | 867 nM | 75% | N#Cc1cc(-c2cnc3c(NCc4nc5cc(Cl)c(Cl)cc5[nH]4)cc(N4CCOCC4)nn23)cs1 [Cmpd 80, 4-(8-(((5,6-dichloro-1H-benzo[d]imidazol-2-yl)methyl)amino)-6-morpholinoimidazo[1,2-b]pyridazin-3-yl)thiophene-2-carbonitrile] | 95%
5000 nM | 1700 nM | 1470 nM | 80% | CN1CCN(c2cc(NCc3nc4cc(Cl)c(Cl)cc4[nH]3)c3ncc(-c4csc(C#N)c4)n3n2)CC1 [Cmpd 79, 4-(8-(((5,6-dichloro-1H-benzo[d]imidazol-2-yl)methyl)amino)-6-(4-methylpiperazin-1-yl)imidazo[1,2-b]pyridazin-3-yl)thiophene-2-carbonitrile] | 75%
7380 nM | 250 nM | 376 nM | – | Cc1ccnc2[nH]c(CNc3cc(N4CCOCC4)nn4c(-c5ccsc5)cnc34)nc12 [Cmpd 76, N-((7-methyl-3H-imidazo[4,5-b]pyridin-2-yl)methyl)-6-morpholino-3-(thiophen-3-yl) imidazo[1,2-b]pyridazin-8-amine] | 75%
